Data: PubChem BioAssay (NCI)
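Compound exposure: 48 hours, 5 concentrations, 96-well plates. The concentration for 50% growth inhibition is given as GI50. Definition used: TGI = concentration required for complete inhibition of growth.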

How the values were obtained:
Assay in all cases: inhibition of tumour cell growth, NCI panel, 48 h
SR leukemia = test system: SR leukemia
COLO 205 colon = test system: COLO 205 colon
K-562 leukemia = test system: K-562 leukemia
LXFL 529 NSCLC = test system: LXFL 529 NSCLC
HCT-116 colon = test system: HCT-116 colon
SK-MEL-28 melanoma = test system: SK-MEL-28 melanoma
M19-MEL melanoma = test system: M19-MEL melanoma
786-0 renal = test system: 786-0 renal
BT-549 breast = test system: BT-549 breast
HS 578T breast = test system: HS 578T breast

SMILES	GI50 (SR leukemia) [µM]	TGI (SR leukemia) [µM]	GI50 (COLO 205 colon) [µM]	TGI (COLO 205 colon) [µM]	GI50 (K-562 leukemia) [µM]	TGI (K-562 leukemia) [µM]	GI50 (LXFL 529 NSCLC) [µM]	TGI (LXFL 529 NSCLC) [µM]	GI50 (HCT-116 colon) [µM]	TGI (HCT-116 colon) [µM]	GI50 (SK-MEL-28 melanoma) [µM]	TGI (SK-MEL-28 melanoma) [µM]	TGI (M19-MEL melanoma) [µM]	GI50 (786-0 renal) [µM]	TGI (786-0 renal) [µM]	TGI (BT-549 breast) [µM]	TGI (HS 578T breast) [µM]
CCC[CH2][Sn]([Cl])([Cl])[CH2]CCC	0.296	1.21	1.15	3.2	0.233	1.24	0.138	0.474	1.17	2.61	0.363	1.36	2.21	0.714	2.04	–	–
CCc1ccc(NC(=O)NC(=O)c2ccccc2[N+](=O)[O-])cc1Oc1ncc(Cl)cn1	–	> 100	–	0.106	–	> 100	–	> 100	–	3.62	–	> 4.64	> 100	–	1.01	35.7	–
CN(C)CCNc1ccc(CO)c2sc3ccc(O)cc3c(=O)c12	–	0.78	–	16.8	–	> 20.9	–	19	–	9.71	–	19.1	15.9	–	9.37	8.93	–
CC1=Nc2c(ccc3c2C(=O)c2ccccc2C3=O)NC(c2cccc3c2CCC3)C1 (stereo unspecified)	–	> 100	–	> 100	–	> 100	–	> 100	–	> 100	–	> 100	> 72.6	–	> 100	–	–
CC(C)(C)c1cc(C(O)(C(F)(F)F)C(F)(F)F)c2c(c1)C(C(F)(F)F)(C(F)(F)F)OC(C)(C(C)(C)C)N2 (stereo unspecified)	–	8.45	–	4.02	–	12.7	–	14.1	–	13.4	–	28.6	9.73	–	11.6	–	–
CC(Oc1ccc2c(-c3ccccc3)cc(=O)oc2c1)C(=O)O (stereo unspecified)	–	> 100	–	> 100	–	> 100	–	> 100	–	> 100	–	> 100	> 100	–	> 100	–	–
C=CCNc1nc2c(s1)C(=O)c1ccccc1C2=O	–	> 100	–	41.2	–	35.8	–	24.2	–	13.6	–	32.8	3.22	–	28.5	–	> 100
